Measurements as given in paper PMC11790914, “Chemogenomics for steroid hormone receptors (NR3)” (Communications Chemistry, 2025).
Where “and” joins values, the source holds several entries; their conditions need not be identical. Equal entries are not always repeated.

Experiments:
[1] = system: HEK293T cells; assay: Cytotoxicity: metabolic activity (WST-8 / CCK-8 assay); conditions: HEK293T, 24 h, WST-8, normalized to 0.1% DMSO, single replicates
[2] = system: NR3C2 (MR); conditions: (lit.); ref Supplementary Table 1; read-out: Potency [nM] EC50, NR3C2 (MR); cited from earlier work
[3] = molecular target: T1, FGFR3 (Homo sapiens, UniProt P22607); assay: Liability panel screening by DSF: FGFR3; type: binding; conditions: DSF, 20 µM, n=2
T1 construct: made in house
In short: (§1)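 Thermal shift: in-house recombinant protein at 2 µM in 10 mM HEPES pH 7.5 with 500 mM NaCl, SYPRO Orange 1:1000, heated at 3 °C/min to 85 °C in technical duplicates. Tm is the Boltzmann inflection point, reported as ∆Tm in K.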

[4] = system: HEK293T cells; assay: Cytotoxicity: necrosis induction (red fluorescent dye for permeable plasma membranes); type: cell-based; conditions: 24 h, necrotic cell count normalized to 0.1% DMSO, single replicates;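 note: compounds applied in DMEM high glucose with 0.1% FCS and 0.1% DMSO, necrotic HEK293T cells counted by red staining of cells whose plasma membranes had become permeable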
[5] = system: ATF6 activity in Hela ATF6 reporter cells; assay: Endoplasmic reticulum stress assay (ATF6 Renilla luciferase reporter, tunicamycin); type: cell-based; conditions: single replicates n=1 to n=5
In short: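 ER stress was induced by 100 ng/mL tunicamycin added 4 h after compound (0.1% DMSO) to HeLa ATF6 reporter cells. After 18 h more, Renilla luciferase signal was read and expressed relative to DMSO control, n=5 biological replicates.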

[6] = molecular target: T2, BRPF1 (Homo sapiens, UniProt P55201); assay: Liability panel screening by DSF: BRPF1; type: binding
T2 construct: This panel comprised ten highly ligandable kinases and bromodomains; made in house
T2 sequence (P55201 628-732 limits assumed): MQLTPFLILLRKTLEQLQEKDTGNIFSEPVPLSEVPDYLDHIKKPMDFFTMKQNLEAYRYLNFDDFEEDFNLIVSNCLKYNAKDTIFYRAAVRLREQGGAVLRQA
In short: as §1

[7] = system: HEK293T cells; assay: Cytotoxicity: growth-rate (change in confluence over 24 h); conditions: normalized to 0.1% DMSO control, single replicates (n=1...)
[8] = molecular target: T3, CDK2 (Homo sapiens, UniProt P24941); assay: Liability panel screening by DSF: CDK2; type: binding; conditions: DSF, 20 µM, n=2
T3 construct: made in house
In short: as §1

[9] = molecular target: T4, BRD4 (Homo sapiens, UniProt O60885); assay: Liability panel screening by DSF: BRD4; type: binding; conditions: DSF, 20 µM, n=2
T4 construct: This panel comprised ten highly ligandable kinases and bromodomains; made in house
In short: as §1

[10] = molecular target: T5, MAPK1 (Homo sapiens, UniProt P28482); assay: Liability panel screening by DSF: MAPK1; type: binding; conditions: DSF, 20 µM, n=2
T5 construct: made in house
In short: as §1

[11] = system: HEK293T cells; assay: Cytotoxicity: apoptosis induction (caspase-3/7 DEVD fluorogenic DNA dye); conditions: HEK293T, 24 h, apoptotic cell count normalized to 0.1% DMSO, single replicates
[12] = molecular target: T6, CSNK1D (Homo sapiens, UniProt P48730); assay: Liability panel screening by DSF: CSNK1D; type: binding; conditions: DSF, 20 µM, n=2
T6 construct: made in house
In short: as §1

[13] = molecular target: T7, GSK3B (Homo sapiens, UniProt P49841); assay: Liability panel screening by DSF: GSK3B; type: binding; conditions: DSF, 20 µM, n=2
T7 construct: made in house

[14] = molecular target: T8, TRIM24 (Homo sapiens, UniProt O15164); assay: Liability panel screening by DSF: TRIM24; type: binding; conditions: DSF, 20 µM, n=2
T8 construct: This panel comprised ten highly ligandable kinases and bromodomains; made in house
T8 sequence (O15164 899-1004 limits assumed): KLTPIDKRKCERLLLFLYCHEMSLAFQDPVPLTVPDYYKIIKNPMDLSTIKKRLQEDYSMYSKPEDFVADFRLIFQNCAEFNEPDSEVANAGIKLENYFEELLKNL
In short: as §1

[15] = molecular target: T9, ABL1 (Homo sapiens, UniProt P00519); assay: Liability panel screening by DSF: ABL1; type: binding; conditions: DSF, 20 µM, n=2
T9 construct: made in house
In short: as §1

[16] = system: NF-κB activity in HEK293 NF-κB reporter cells; assay: NF-kB activity assay (GFP reporter, ionomycin/PMA); type: cell-based; conditions: n=3
In short: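 Reporter readout: GFP-expressing cells normalized to confluence, imaged every 90 min across 24 h after ionomycin (100 ng/mL)/PMA (10 ng/mL) stimulation of HEK293 cells pre-treated 4 h with compound (0.1% DMSO); triplicate independent experiments.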

[17] = molecular target: T10, AURKA (Homo sapiens, UniProt O14965); assay: Liability panel screening by DSF: AURKA; type: binding; conditions: DSF, 20 µM, n=2
T10 construct: made in house
T10 sequence (O14965 1-403): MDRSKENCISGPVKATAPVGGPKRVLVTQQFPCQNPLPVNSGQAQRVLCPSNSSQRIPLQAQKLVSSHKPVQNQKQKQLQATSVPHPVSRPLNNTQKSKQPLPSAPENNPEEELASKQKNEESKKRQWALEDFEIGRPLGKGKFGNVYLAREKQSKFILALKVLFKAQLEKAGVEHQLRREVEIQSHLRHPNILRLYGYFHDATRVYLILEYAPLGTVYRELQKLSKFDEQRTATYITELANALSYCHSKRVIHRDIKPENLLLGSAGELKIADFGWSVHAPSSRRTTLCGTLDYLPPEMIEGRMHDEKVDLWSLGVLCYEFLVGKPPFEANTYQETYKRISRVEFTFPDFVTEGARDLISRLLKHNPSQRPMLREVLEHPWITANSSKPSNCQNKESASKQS
In short: as §1

[18] = system: NR3C4 (AR); conditions: ref Supplementary Table 1, cited from earlier work
[19] = known off-target outside the NR family at the recommended concentration; ref Supplementary Table 1 (superscript references); cited from earlier work
[20] = system: NR3C3 (PR); conditions: cited from earlier work
[21] = system: NR3C1 (GR); conditions: ref Supplementary Table 1, cited from earlier work

T9 sequence (P00519 whole entry, species assumed): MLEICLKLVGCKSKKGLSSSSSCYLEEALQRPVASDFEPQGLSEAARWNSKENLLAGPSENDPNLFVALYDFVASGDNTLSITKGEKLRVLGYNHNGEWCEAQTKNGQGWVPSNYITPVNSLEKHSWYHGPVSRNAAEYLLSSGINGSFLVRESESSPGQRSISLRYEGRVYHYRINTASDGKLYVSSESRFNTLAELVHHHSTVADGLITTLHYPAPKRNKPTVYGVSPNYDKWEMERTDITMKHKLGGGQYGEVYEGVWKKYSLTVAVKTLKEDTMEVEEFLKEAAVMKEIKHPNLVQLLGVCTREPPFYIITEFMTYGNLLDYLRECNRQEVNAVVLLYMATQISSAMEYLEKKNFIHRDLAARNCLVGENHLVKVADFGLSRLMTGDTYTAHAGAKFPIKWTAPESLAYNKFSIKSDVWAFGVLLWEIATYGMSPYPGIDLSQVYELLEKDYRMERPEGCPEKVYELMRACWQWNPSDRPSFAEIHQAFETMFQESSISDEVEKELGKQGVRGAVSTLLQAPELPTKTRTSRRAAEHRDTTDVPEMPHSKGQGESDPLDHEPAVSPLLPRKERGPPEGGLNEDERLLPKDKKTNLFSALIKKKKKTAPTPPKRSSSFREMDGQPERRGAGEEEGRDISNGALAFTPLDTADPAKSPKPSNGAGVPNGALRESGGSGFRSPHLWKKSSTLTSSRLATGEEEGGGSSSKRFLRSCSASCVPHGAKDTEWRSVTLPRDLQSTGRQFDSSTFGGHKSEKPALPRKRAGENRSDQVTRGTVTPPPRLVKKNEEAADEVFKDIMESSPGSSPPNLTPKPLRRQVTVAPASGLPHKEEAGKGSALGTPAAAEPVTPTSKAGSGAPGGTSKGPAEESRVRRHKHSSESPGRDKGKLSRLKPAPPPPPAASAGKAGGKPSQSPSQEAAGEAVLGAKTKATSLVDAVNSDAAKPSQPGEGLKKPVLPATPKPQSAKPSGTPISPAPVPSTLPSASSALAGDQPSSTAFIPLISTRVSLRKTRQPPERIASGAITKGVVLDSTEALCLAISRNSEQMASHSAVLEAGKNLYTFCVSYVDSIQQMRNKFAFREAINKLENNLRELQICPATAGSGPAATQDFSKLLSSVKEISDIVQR
T5 sequence (P28482 whole entry, species assumed): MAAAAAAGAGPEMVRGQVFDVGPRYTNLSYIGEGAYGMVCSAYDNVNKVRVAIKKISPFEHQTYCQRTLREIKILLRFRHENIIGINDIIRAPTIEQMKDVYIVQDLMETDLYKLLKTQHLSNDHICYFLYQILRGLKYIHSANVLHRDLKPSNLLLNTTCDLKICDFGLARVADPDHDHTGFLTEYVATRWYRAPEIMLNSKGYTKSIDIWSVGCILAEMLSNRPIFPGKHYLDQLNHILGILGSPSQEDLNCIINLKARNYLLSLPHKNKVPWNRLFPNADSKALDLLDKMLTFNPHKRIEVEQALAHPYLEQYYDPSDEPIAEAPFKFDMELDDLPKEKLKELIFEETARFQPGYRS
T6 sequence (P48730 whole entry, species assumed): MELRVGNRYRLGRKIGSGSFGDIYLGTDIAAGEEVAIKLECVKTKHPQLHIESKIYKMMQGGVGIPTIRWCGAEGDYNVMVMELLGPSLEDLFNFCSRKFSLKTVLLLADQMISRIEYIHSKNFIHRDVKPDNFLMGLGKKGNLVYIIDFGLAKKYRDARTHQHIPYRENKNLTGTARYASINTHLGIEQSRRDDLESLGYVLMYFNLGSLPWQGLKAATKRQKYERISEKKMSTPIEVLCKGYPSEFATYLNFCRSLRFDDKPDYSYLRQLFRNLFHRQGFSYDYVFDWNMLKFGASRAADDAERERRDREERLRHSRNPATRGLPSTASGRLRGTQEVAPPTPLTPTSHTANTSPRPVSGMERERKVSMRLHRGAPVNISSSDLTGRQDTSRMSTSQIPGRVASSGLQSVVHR
T1 sequence (P22607 23-806, species assumed): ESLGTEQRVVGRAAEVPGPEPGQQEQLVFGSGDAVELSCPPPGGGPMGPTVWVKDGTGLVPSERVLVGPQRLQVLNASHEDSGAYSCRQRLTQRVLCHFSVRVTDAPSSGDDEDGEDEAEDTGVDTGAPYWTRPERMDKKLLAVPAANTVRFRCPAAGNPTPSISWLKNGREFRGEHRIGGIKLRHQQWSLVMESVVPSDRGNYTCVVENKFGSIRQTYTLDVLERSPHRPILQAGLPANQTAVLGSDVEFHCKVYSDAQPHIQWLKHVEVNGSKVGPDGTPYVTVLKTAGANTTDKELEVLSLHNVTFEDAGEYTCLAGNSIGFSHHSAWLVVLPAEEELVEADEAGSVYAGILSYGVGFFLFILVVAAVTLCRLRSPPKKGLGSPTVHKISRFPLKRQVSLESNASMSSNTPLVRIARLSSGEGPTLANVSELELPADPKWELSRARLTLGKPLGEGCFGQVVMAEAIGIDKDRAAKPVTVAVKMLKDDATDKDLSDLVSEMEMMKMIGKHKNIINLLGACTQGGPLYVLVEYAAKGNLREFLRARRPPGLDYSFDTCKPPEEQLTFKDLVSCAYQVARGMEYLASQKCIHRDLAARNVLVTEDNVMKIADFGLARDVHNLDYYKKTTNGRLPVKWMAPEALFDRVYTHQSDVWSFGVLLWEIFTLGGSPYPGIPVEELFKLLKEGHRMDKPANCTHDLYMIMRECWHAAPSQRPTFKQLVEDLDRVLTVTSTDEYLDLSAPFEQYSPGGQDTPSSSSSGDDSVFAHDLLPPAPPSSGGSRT
T7 sequence (P49841 whole entry, species assumed): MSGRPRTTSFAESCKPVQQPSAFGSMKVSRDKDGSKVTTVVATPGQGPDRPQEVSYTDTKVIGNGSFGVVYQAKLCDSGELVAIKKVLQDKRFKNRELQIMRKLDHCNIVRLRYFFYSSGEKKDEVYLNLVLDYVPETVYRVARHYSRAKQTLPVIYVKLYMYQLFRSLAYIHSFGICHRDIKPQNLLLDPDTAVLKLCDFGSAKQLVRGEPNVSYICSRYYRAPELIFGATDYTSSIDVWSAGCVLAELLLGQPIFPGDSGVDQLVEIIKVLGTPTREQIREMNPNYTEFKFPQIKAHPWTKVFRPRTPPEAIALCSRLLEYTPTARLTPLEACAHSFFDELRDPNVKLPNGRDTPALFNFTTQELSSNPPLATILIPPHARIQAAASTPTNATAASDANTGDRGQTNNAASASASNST

## C[C@]12CCC(=O)C=C1CC[C@@H]1[C@@H]2[C@@H](O)C[C@]2(C=O)[C@@H](C(=O)CO)CC[C@@H]12 [Aldosterone]
[1]; 1 µM
  Metabolic activity [MA]: 1.07 (2×) and 1.02 and 0.98 and 1.08 and 0.99 (2×) and 0.93
[2]
  EC50: 0.34 ± 0.04 nM
[3]; read-out: Mean ΔTM FGFR3
  ΔTm at 20 µM: -0.16 °C
[4]; 1 µM
  Necrosis induction [NI]: 0.75 and 0.67 and 0.68 and 0.72
[5]; Homo sapiens, HeLa, 1 µM, read-out: ER stress [rel. ATF6 activity]
  activity at 1 µM: 80%
[6]; read-out: Mean ΔTM BRPF1
  ΔTm at 20 µM: -1.02 °C
[7]; 1 µM
  Growth rate [GR]: 0.87 and 0.57 and 0.92 and 1.28 and 0.95 and 0.82 and 0.93 and 0.54 and 0.81 and -0.31
[8]; read-out: Mean ΔTM CDK2
  ΔTm at 20 µM: -0.06 °C
[9]; read-out: Mean ΔTM BRD4
  ΔTm at 20 µM: 0.17 °C
[10]; read-out: Mean ΔTM MAPK1
  ΔTm at 20 µM: 0.17 °C
[11]; 1 µM
  Apoptosis induction [AI]: 0.40 and 0.56 and 0.73 and 0.75 and 0.46 and 0.86
[12]; read-out: Mean ΔTM CSNK1D
  ΔTm at 20 µM: -2.48e-05 °C
[13]; read-out: Mean ΔTM GSK3B
  ΔTm at 20 µM: -0.23 °C
[14]; read-out: Mean ΔTM TRIM24
  ΔTm at 20 µM: -0.91 °C
[15]; read-out: Mean ΔTM ABL1
  ΔTm at 20 µM: -0.26 °C
[16]; 1 µM, 1,5 h
  Mean NFκB response: 2799.98 GFP+-cells/confluence ∙ 1000
[16]; 1 µM, 4,5 h
  Mean NFκB response: 3728.04 GFP+-cells/confluence ∙ 1000
[16]; 1 µM, 7,5 h
  Mean NFκB response: 7006.53 GFP+-cells/confluence ∙ 1000
[16]; 1 µM, 10,5 h
  Mean NFκB response: 14006.47 GFP+-cells/confluence ∙ 1000
[16]; 1 µM, 13,5 h
  Mean NFκB response: 19614.51 GFP+-cells/confluence ∙ 1000
[16]; 1 µM, 16,6 h
  Mean NFκB response: 24279.62 GFP+-cells/confluence ∙ 1000
[16]; 1 µM, 19,5 h
  Mean NFκB response: 27366.03 GFP+-cells/confluence ∙ 1000
[16]; 1 µM, 22,5 h
  Mean NFκB response: 29896.67 GFP+-cells/confluence ∙ 1000
[16]; 1 µM, 3 h
  Mean NFκB response: 3180.38 GFP+-cells/confluence ∙ 1000
[16]; 1 µM, 6 h
  Mean NFκB response: 4651.42 GFP+-cells/confluence ∙ 1000
[16]; 1 µM, 9 h
  Mean NFκB response: 10914.09 GFP+-cells/confluence ∙ 1000
[16]; 1 µM, 12 h
  Mean NFκB response: 17161.43 GFP+-cells/confluence ∙ 1000
[16]; 1 µM, 15 h
  Mean NFκB response: 22438.14 GFP+-cells/confluence ∙ 1000
[16]; 1 µM, 18 h
  Mean NFκB response: 25981.67 GFP+-cells/confluence ∙ 1000
[16]; 1 µM, 21 h
  Mean NFκB response: 28773.18 GFP+-cells/confluence ∙ 1000
[16]; 1 µM, 24 h
  Mean NFκB response: 30941.17 GFP+-cells/confluence ∙ 1000
[17]; read-out: Mean ΔTM AURKA
  ΔTm at 20 µM: 0.1 °C

## Medroxyprogesterone
[1]; 0.3 µM
  Metabolic activity [MA]: 0.94 and 1.01 and 0.93 and 1.08
[3]
  Mean ΔTM FGFR3: -0.32 K
[4]; 0.3 µM
  Necrosis induction [NI]: 0.91 (2×) and 1.04 and 0.81
[18]; of DHT (dihydrotestosterone)
  rel. activity from literature, NR3C4 (AR): % of DHT: 159 ± 10%
[18]; read-out: Potency [nM] IC50, NR3C4 (AR), (lit.)
  IC50: 6 ± 1 nM
[5]; 0.3 µM
  ER stress [rel. ATF6 activity]: 0.98 and 0.97 and 1.05 and 0.94 and 0.96
[6]; DSF, 20 µM, n=2
  Mean ΔTM BRPF1: 0.25 K
[7]; 0.3 µM
  Growth rate [GR]: 0.94 and 1.01 and 1.09 and 1.40 and 1.04 (2×) and 0.87 and 1.11 and 0.76 and 1.34
[19]
  Other off-target at recom. conc.: 17β-HSD2 and 17β-HSD3 and 17β-HSD1
[8]
  Mean ΔTM CDK2: -0.39 K
[9]
  Mean ΔTM BRD4: -1.17 K
[10]
  Mean ΔTM MAPK1: 0.18 K
[11]; 0.3 µM
  Apoptosis induction [AI]: 0.76 and 0.77 and 1.07 and 0.74 (2×) and 0.88
[12]
  Mean ΔTM CSNK1D: -0.11 K
[13]
  Mean ΔTM GSK3B: -0.99 K
[14]
  Mean ΔTM TRIM24: -0.75 K
[20]; (lit.), ref Supplementary Table 1, read-out: Potency [nM] EC50, NR3C3 (PR)
  EC50: 0.15 ± 0.05 nM
[20]; of PGN (progesterone)
  rel. activity from literature, NR3C3 (PR): % of PGN: 80 ± 7%
[15]
  Mean ΔTM ABL1: -0.24 K
[16]; 0.3 µM, 1,5 h
  Mean NFκB response: 2817.45 GFP+-cells/confluence ∙ 1000
[16]; 0.3 µM, 4,5 h
  Mean NFκB response: 3349.18 GFP+-cells/confluence ∙ 1000
[16]; 0.3 µM, 7,5 h
  Mean NFκB response: 6986.39 GFP+-cells/confluence ∙ 1000
[16]; 0.3 µM, 10,5 h
  Mean NFκB response: 17788.45 GFP+-cells/confluence ∙ 1000
[16]; 0.3 µM, 13,5 h
  Mean NFκB response: 26308.75 GFP+-cells/confluence ∙ 1000
[16]; 0.3 µM, 16,6 h
  Mean NFκB response: 32691.58 GFP+-cells/confluence ∙ 1000
[16]; 0.3 µM, 19,5 h
  Mean NFκB response: 37046.67 GFP+-cells/confluence ∙ 1000
[16]; 0.3 µM, 22,5 h
  Mean NFκB response: 41020.00 GFP+-cells/confluence ∙ 1000
[16]; 0.3 µM, 3 h
  Mean NFκB response: 2918.53 GFP+-cells/confluence ∙ 1000
[16]; 0.3 µM, 6 h
  Mean NFκB response: 4035.46 GFP+-cells/confluence ∙ 1000
[16]; 0.3 µM, 9 h
  Mean NFκB response: 12242.08 GFP+-cells/confluence ∙ 1000
[16]; 0.3 µM, 12 h
  Mean NFκB response: 21999.86 GFP+-cells/confluence ∙ 1000
[16]; 0.3 µM, 15 h
  Mean NFκB response: 29772.36 GFP+-cells/confluence ∙ 1000
[16]; 0.3 µM, 18 h
  Mean NFκB response: 34990.00 GFP+-cells/confluence ∙ 1000
[16]; 0.3 µM, 21 h
  Mean NFκB response: 39166.67 GFP+-cells/confluence ∙ 1000
[16]; 0.3 µM, 24 h
  Mean NFκB response: 41696.67 GFP+-cells/confluence ∙ 1000
[17]
  Mean ΔTM AURKA: 0.0165 K
[21]; (lit.), read-out: Potency [nM] EC50, NR3C1 (GR)
  EC50: 10 ± 1 nM
[21]; of dexamet./DXM
  rel. activity from literature, NR3C1 (GR): % of dexamethasone (DXM): 157 ± 22%
